Assay results reported in ChEMBL document CHEMBL5634138, “Discovery of a novel BLT2 antagonist for the treatment of inflammatory airway diseases” (Eur J Med Chem, 2023).

Key:
[1] = (§1) Cytotoxicity against CHO cells assessed as inhibition of cell growth at 10 uM incubated overnight by MTS assay reltive to control; type: toxicity, cell-based, Cricetulus griseus; conditions: chinese hamster, CHO cells, read-out: Activity
CHO = experiment: as §1; type: toxicity, cell-based, Cricetulus griseus; conditions: chinese hamster, cho, 10 µM
Mus musculus [2] = experiment: Anti-asthmatic activity against OVA/LPS induced BALB/c mouse model assessed as reduction in bronchial hyper-response at 10 mg/kg, ip for one hr before every challenge on day 14 to 16 and measured after 17 days relative to control; type: functional; design: scale not given: the % may be the effect or the level left; conditions: time 17 day
Mus musculus [3] = experiment: Anti-asthmatic activity against OVA/LPS induced BALB/c mouse model assessed as decrease in bronchoalveolar lavage fluid (BALF) IL-4 level at 10 mg/kg, ip by ELISA method relative to control; type: functional; design: scale not given: the % may be the effect or the level left
Mus musculus [4] = experiment: Anti-asthmatic activity against OVA/LPS induced BALB/c mouse model assessed as decrease in bronchoalveolar lavage fluid (BALF) IL-5 level at 10 mg/kg, ip by ELISA method relative to control; type: functional; design: scale not given: the % may be the effect or the level left
Mus musculus [5] = experiment: Anti-asthmatic activity against OVA/LPS induced BALB/c mouse model assessed as decrease in bronchoalveolar lavage fluid (BALF) IL-13 level at 10 mg/kg, ip by ELISA method relative to control; type: functional; design: scale not given: the % may be the effect or the level left

In the case of `CCCCC(=O)N(Cc1ccc(-c2ccc(O)cc2)cc1)c1cccc(C)c1`, the inhibition at 10 µM [1] is reported as 24%.

With `CCCCC(=O)N(Cc1ccc(-c2ccc(C(=O)O)cc2)cc1)c1ccccc1F` the Activity (CHO) was “Non-Toxic”.

For `CCCCC(=O)N(Cc1ccc(-c2ccc(O/C=C/C(=O)O)cc2)cc1)c1cccc(F)c1`, the Activity (CHO) was “Non-Toxic”.

`CCCCC(=O)N(Cc1ccc(-c2ccccc2CC(=O)O)cc1)c1ccccc1` gave an inhibition at 10 µM [1] of 25%.

In the case of `CCCCC(=O)N(Cc1ccc(-c2ccc(OC)cc2)cc1)c1ccccc1`, the Activity (CHO) is reported as “Non-Toxic”.

For `CCCCC(=O)N(Cc1ccc(-c2ccc(C(=O)N3CCN(C)CC3)cc2)cc1)c1ccccc1`, the Activity (CHO) was “Non-Toxic”.

With `CCCCC(=O)N(Cc1ccc(-c2ccc(C(=O)NCC(=O)O)cc2)cc1)c1ccccc1` the Activity (CHO) was “Non-Toxic”.

For `CCCCC(=O)N(Cc1ccc(-c2ccc(OCCC(=O)O)cc2)cc1)c1cccc(F)c1`, the Activity (CHO) was “Non-Toxic”.

For `CCc1cc(C(C)=O)c(O)cc1OCCCCCC(C)(C)c1nn[nH]n1` [LY-255283], the Activity (Mus musculus [2]) was 69%, the Activity (Mus musculus [3]) was 38% and the Activity (Mus musculus [4]) was 48%. The Activity (Mus musculus [5]) was 38%.

For `CCCCC(=O)N(Cc1ccc(-c2ccc(O)cc2)cc1)c1ccccc1`, the Activity (CHO) was “Non-Toxic”.

In the case of `CCCCC(=O)N(Cc1ccc(-c2ccc(OCC(=O)O)cc2)cc1)c1cccc(C(F)(F)F)c1`, the Activity (CHO) is reported as “Non-Toxic”.

For `CCCCC(=O)N(Cc1ccc(-c2cccc(C(=O)O)c2)cc1)c1ccccc1`, the Activity (CHO) was “Non-Toxic”.

Compound `CCCCC(=O)N(Cc1ccc(-c2ccc(O)cc2)cc1)c1cccc(C(F)(F)F)c1` has an inhibition at 10 µM [1] of 5%.

In the case of `CCCCC(=O)N(Cc1ccc(-c2ccc(C(=O)N3CCN(C(C)C)CC3)cc2)cc1)c1ccccc1`, the Activity (CHO) is reported as “Non-Toxic”.

For `CCCCC(=O)N(Cc1ccc(-c2ccc(OC)cc2)cc1)c1cccc(C(F)(F)F)c1`, the Activity (CHO) was “Non-Toxic”.

With `CCCCC(=O)N(Cc1ccc(-c2ccc(N)cc2)cc1)c1ccccc1` the Activity (CHO) was “Non-Toxic”.
